Assays:
[1] = cited from earlier work
[2] = Plasma concentrations measured by UPLC-MSMS in the case patient; format: in vivo, human
Experimental: The patient had pancreatic cancer and was admitted to Hirosaki University hospital to undergo a pancreatoduodenectomy. Written informed consent was obtained from this patient for the measurement of each biomarker and polymorphisms of pharmacokinetics-related genes. […] This regimen involved taking CAM 400 mg twice per day after breakfast and supper, RFP 450 mg once per day after breakfast, and ethambutol 750 mg once per day.

[3] = tested on: P-glycoprotein (P-gp; gene code ABCB1); settings: cited from earlier work
[4] = tested on: organic anion transporting polypeptide 1B1 (OATP1B1; SLCO1B1); settings: cited from earlier work
albumin = settings: cited from earlier work

Compound	unchanged valsartan excreted in the urine [1]	Plasma concentration of valsartan ([2]; POD6)	Plasma concentration of valsartan ([2]; POD9)	Plasma concentration of valsartan ([2]; POD11)	Plasma concentration of valsartan ([2]; POD131)	concentration at 10 postoperative day ([2]; male, human, plasma, POD10, read-out: Plasma concentration of valsartan)	concentration at 14 postoperative day ([2]; male, human, plasma, POD14, read-out: Plasma concentration of valsartan)	substrate of P-glycoprotein [3]	substrate of OATP1B1 [4]	albumin binding rate (albumin)	absorbed drug excreted in its unchanged form through the kidneys [1]	bioavailability [1]	concentration at 26 h ([2]; male, human, in vivo, 30 mg/day, POD131, 26 h after last edoxaban tablet (C0h), edoxaban 30 mg/day, outpatient follow-up)	concentration at 2 h ([2]; male, human, in vivo, 30 mg/day, POD233, 2 h after last edoxaban tablet (C2h), edoxaban 30 mg/day, outpatient follow-up)	concentration at 24 h ([2]; male, human, in vivo, 60 mg once per day, POD9, 24 h after last edoxaban tablet (trough, C0h), edoxaban 60 mg once per day with RFP and CAM, onset of AKI)	concentration at 8 h ([2]; male, human, in vivo, 60 mg once per day, POD10, 8 h after last edoxaban tablet (C8h), edoxaban 60 mg once per day with RFP and CAM, AKI)	concentration at 24 h ([2]; male, human, in vivo, 60 mg once per day, POD11, 24 h after last edoxaban tablet (trough, C0h), AKI)	concentration at 96 h ([2]; male, human, in vivo, 60 mg once per day, POD14, 96 h after last edoxaban tablet)
CCCCC(=O)N(Cc1ccc(-c2ccccc2-c2nnn[nH]2)cc1)[C@H](C(=O)O)C(C)C [valsartan]	13%	2400 ng/mL	5700 ng/mL	10400 ng/mL	1000 ng/mL	9400 ng/mL	1400 ng/mL	–	–	–	–	–	–	–	–	–	–	–
CN1CCc2nc(C(=O)N[C@@H]3C[C@@H](C(=O)N(C)C)CC[C@@H]3NC(=O)C(=O)Nc3ccc(Cl)cn3)sc2C1 [edoxaban]	–	–	–	–	–	–	–	substrate	not an OATP1B1 substrate	55%	approximately 50%	approximately 62%	< 5 ng/mL	413 ng/mL	131 ng/mL	796 ng/mL	116 ng/mL	< 5 ng/mL

Source: article PMC11520371 (Journal of Pharmaceutical Health Care and Sciences, 2024)
